The source made the active and inactive calls.
Columns and labels:
Leucine aminopeptidase = molecular target: T1, Leucine aminopeptidase (Plasmodium falciparum 3D7, UniProt Q8IL11); assay: P. falciparum M17LAP inhibitors, primary screen, biochemical, fluorogenic H-Leu-NHMec substrate, 1536-well (AID 1619); format: functional
T1 sequence (Q8IL11 whole entry): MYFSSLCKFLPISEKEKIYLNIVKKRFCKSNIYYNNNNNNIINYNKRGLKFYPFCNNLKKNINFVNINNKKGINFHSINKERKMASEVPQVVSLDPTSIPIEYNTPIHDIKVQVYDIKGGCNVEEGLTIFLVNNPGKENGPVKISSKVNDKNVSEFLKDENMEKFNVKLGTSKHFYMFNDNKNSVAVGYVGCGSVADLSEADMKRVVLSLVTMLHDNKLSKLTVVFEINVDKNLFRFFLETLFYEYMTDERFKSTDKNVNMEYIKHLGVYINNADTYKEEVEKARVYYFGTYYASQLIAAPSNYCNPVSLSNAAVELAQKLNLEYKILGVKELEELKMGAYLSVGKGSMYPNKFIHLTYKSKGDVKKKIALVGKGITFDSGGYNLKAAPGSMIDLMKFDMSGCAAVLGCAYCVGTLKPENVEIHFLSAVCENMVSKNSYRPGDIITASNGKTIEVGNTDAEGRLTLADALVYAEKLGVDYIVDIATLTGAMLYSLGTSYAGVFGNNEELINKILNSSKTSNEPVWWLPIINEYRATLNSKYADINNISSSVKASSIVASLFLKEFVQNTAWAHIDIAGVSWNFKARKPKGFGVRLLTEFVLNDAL

Aminopeptidase N = molecular target: T2, Aminopeptidase N (Plasmodium falciparum FcB1/Columbia, UniProt O96935); assay: malaria alanyl aminopeptidase activity blockers – biochemical, fluorogenic H-Leu-NHMec substrate, 1536-well (AID 1445); parameters: species or system Plasmodium falciparum 3D7, 3D7
T2 sequence (O96935 whole entry): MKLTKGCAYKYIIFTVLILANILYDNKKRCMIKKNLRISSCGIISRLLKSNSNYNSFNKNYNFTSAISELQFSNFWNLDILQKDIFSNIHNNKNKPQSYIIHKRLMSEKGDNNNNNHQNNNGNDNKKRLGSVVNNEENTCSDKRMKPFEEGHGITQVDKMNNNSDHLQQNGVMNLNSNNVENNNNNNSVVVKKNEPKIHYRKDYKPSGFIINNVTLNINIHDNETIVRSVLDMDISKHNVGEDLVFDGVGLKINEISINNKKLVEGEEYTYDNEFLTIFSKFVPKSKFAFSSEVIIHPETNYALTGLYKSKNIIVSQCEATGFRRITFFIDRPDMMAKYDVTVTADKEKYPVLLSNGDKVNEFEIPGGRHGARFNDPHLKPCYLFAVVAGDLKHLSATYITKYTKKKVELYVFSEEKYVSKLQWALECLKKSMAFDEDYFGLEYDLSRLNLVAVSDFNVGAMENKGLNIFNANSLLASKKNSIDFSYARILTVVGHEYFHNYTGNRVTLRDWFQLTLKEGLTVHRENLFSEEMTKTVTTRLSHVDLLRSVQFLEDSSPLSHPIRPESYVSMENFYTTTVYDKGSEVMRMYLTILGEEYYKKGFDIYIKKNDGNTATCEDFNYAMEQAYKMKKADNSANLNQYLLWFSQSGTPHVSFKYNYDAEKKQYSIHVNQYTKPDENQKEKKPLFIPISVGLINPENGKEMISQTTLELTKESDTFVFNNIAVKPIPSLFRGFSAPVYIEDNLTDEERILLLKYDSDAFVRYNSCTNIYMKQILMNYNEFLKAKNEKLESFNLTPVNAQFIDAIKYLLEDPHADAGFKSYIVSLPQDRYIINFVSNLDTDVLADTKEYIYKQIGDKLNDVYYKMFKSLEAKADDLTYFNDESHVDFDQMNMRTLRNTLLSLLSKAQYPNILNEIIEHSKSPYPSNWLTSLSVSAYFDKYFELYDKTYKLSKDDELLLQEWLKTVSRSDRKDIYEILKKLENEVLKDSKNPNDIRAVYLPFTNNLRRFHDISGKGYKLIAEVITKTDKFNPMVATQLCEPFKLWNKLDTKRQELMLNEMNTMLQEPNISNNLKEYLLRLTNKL

[1] = viability of PTEN-deleted HCT116 cells – cell-based, HCT116 PTEN knockout, dose response (AID 1047); format: functional;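 further: HCT116 colon tumor cells with PTEN knocked out; cells exposed to compound for 60 hours before readout; potency for loss of cell viability measured by luminescence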
[2] = viability of HCT116 lacking mutant beta-catenin – cell-based, human colon tumor, dose response (AID 1045); format: functional;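 further: HCT116 colon tumor cells with beta catenin knocked out; cells exposed to compound for 60 hours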
Cytochrome P450 1A2 = molecular target: T3, Cytochrome P450 1A2 (Homo sapiens, UniProt P05177);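 further: PubChem cytochrome P450 panel assay, CYP1A2 panel member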
T3 sequence (P05177 whole entry): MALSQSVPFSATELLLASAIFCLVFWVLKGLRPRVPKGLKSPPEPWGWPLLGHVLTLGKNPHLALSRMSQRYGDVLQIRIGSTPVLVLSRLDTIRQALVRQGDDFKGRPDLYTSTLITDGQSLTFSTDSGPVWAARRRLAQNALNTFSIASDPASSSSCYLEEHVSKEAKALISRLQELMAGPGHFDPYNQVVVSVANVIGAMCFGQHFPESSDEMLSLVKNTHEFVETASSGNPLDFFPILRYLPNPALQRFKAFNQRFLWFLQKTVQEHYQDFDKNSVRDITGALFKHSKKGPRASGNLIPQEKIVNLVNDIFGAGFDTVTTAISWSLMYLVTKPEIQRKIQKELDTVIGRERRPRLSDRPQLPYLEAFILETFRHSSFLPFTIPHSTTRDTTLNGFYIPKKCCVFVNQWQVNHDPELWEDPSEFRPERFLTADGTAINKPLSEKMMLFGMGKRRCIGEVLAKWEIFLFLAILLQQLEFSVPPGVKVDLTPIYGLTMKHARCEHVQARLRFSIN

[3] = Luminescence Cell-Based Dose Retest to Confirm Inhibitors of Cancer Stem Cells. [Related pubchem assays (depositor defined):AID2717, AID2721]; format: functional; settings: Homo sapiens
Large T antigen = Large T antigen (Simian virus 40, UniProt P03070); format: functional, Betapolyomavirus macacae;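 further: Confirmatory-stage PubChem screen for compounds that inhibit SV40 T antigen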
[4] = molecular target: Induced myeloid leukemia cell differentiation protein Mcl-1 (Homo sapiens, UniProt Q07820); format: functional
Nonstructural protein 1 = Nonstructural protein 1 (Influenza A virus, UniProt Q194T2); format: functional, Influenza A virus (A/California/07/2009(H1N1))
[5] = blockers of HIV-1 envelope-mediated cell-cell fusion – cherry-pick, dose response (AID 652057); format: functional, cell-based
[6] = blockers of HIV-1 ZM109 envelope-driven cell-cell fusion – HeLa effector, CEM target cells, luciferase, cherry-pick, dose response (AID 652058); format: functional, cell-based;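 further: luciferase signal from HIV-1 Env mediated cell-cell fusion of effector and target cells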
[7] = off-target signal loss in HeLa-CEM21 co-culture – HeLa F-luc CTL cells, cherry-picked, counter-screen for HIV-1 Env fusion inhibitor project, dose response (AID 652040); format: functional, cell-based;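 further: potency for signal decrease marking cytotoxic or nonspecific inhibition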
[8] = HIV-1 AD8 envelope cell-cell fusion blockers – cherry-pick, dose response (AID 652062); format: functional, cell-based;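 further: luciferase signal from cell-cell fusion driven by HIV-1 clade B AD8 Env; potency is for inhibitors of fusion seen as a drop in luminescence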
[9] = viability of uninfected HEp-2 cells – cell-based, HTS, cytotoxicity control for RSV inhibitor project, dose response (AID 2410); format: functional; settings: human respiratory syncytial virus
[10] = reduction of Shn3 3'UTR-driven luciferase in osteoblasts – cell-based, Clone20 osteoblasts, firefly luciferase, cherry-picked, dose response (AID 624132); format: functional;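 further: firefly luciferase luminescence from reporter carrying the Shn3 3'UTR in osteoblasts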
INS1 = assay: INS-1E survival protection against cytokine death – cell-based, luminescence, retest, dose response (AID 449756); format: functional; settings: Rattus norvegicus;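 further: cell death triggered by IL-1 beta plus TNF-alpha plus IFN-gamma mixture; protective hits raise ATP signal compared with cytokine alone wells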
[11] = molecular target: T4, Rac GTPase-activating protein 1 (Homo sapiens, UniProt Q9H0H5); assay: blockers of MgcRacGAP-driven Rac1 GTP hydrolysis – biochemical, ADP Hunter fluorescence, primary and confirmatory, confirmation (AID 624330); format: functional
T4 sequence (Q9H0H5 whole entry): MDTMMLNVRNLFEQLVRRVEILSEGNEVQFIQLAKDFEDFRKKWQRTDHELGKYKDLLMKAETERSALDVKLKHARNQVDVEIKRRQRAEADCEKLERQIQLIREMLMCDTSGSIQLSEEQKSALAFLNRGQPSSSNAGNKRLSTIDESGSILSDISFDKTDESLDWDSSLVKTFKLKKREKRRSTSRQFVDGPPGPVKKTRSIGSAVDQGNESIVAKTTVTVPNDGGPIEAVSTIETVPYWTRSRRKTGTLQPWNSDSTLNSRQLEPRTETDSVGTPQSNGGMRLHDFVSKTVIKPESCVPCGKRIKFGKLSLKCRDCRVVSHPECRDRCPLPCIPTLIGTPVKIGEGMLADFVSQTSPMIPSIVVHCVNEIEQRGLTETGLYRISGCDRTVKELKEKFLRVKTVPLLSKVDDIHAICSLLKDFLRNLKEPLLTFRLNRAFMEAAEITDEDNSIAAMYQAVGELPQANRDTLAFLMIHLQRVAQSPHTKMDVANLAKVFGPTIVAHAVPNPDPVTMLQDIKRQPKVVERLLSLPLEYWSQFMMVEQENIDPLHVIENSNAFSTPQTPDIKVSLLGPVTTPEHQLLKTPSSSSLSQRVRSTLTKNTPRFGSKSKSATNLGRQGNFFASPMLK

Sequence of Induced myeloid leukemia cell differentiation protein Mcl-1 (Q07820 whole entry): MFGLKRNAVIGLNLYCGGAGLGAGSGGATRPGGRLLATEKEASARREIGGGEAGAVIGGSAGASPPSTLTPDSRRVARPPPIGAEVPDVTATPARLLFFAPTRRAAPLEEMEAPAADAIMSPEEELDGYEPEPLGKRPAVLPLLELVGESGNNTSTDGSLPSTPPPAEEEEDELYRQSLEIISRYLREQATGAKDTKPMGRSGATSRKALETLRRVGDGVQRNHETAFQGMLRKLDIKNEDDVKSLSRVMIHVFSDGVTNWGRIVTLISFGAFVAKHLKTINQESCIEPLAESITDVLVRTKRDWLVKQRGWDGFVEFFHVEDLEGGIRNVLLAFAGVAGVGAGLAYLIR
Sequence of Large T antigen (P03070 whole entry): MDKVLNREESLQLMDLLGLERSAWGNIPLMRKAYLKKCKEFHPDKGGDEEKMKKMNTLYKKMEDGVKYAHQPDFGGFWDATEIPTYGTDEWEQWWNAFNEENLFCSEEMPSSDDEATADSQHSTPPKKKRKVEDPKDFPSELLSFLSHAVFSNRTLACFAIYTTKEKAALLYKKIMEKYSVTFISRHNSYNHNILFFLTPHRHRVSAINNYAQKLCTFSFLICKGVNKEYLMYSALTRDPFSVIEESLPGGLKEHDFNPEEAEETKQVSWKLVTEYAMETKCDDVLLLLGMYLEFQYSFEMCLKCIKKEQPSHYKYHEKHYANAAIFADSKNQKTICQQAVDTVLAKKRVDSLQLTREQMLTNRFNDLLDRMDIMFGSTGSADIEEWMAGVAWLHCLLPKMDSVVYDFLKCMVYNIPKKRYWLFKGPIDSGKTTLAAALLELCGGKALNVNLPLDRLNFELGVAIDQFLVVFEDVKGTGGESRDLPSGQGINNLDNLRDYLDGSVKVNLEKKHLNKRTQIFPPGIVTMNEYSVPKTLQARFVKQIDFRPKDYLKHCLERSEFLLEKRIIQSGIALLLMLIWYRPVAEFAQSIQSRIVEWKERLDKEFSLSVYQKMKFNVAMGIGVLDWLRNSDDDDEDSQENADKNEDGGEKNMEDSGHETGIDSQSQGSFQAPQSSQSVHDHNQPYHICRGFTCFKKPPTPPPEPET
Sequence of Nonstructural protein 1 (Q194T2 whole entry, the tested form may be a part): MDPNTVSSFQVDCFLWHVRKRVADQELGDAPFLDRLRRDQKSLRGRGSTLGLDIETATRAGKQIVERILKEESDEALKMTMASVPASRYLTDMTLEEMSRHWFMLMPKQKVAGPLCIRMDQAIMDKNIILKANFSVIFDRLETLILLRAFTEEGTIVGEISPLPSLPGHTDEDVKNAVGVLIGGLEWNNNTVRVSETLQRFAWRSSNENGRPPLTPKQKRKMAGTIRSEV

O=C(CSc1ncccc1C(=O)O)NCc1ccc(F)cc1
IC50 (Leucine aminopeptidase): 42.7 µM (active)

CC(C)S(=O)(=O)C1=NSC2=NC(=O)/C(=C\c3c[nH]c4ccccc34)C(=N)N21
IC50 (Aminopeptidase N): 37.3 µM (active)

CCC(=O)c1ccc(OCC(O)CN(CCc2ccccc2)Cc2ccccc2)cc1 (stereo not given)
EC50 [1]: 49.2 µM (active)
EC50 [2]: 83.6 µM (active)
AC50 (Cytochrome P450 1A2): 20 µM (inconclusive)

COc1ccc(C2NCCc3c2[nH]c2ccccc32)cc1CSc1nc2ccccc2s1 (stereo not given)
EC50 [1]: 12.1 µM (active)
EC50 [2]: 10.1 µM (active)
AC50 [3]: 3.13 µM (active)

Cc1nnc(SCC(=O)Nc2ccc(N(C)C)cc2)n(N)c1=O
IC50 (Large T antigen): 11.6 µM (active)

CCc1cc(=O)oc2c(C)c(O)c(CN3CCCCC3)cc12
IC50 (Aminopeptidase N): 39.9 µM (active)

FC(F)(F)C1=CC(c2ccccc2)=NCCN1
IC50 [4]: 9.33 µM (not active)

CC(NC(=O)c1ccco1)C(=O)Nc1nc(-c2ccccn2)cs1 (stereo not given)
IC50 (Nonstructural protein 1): 9.55 µM (active)

CCCCc1nc2sc3c(c2c(=O)n1NC(=O)c1ccco1)CC(C)(C)OC3
IC50 (Aminopeptidase N): 42.8 µM (active)

NC(CC(=O)O)c1ccc(Br)cc1 (stereo not given)
IC50 (Aminopeptidase N): 69.2 µM (active)

O=c1[nH]c2ccc(Cl)cc2c(-c2ccccc2)c1CN1CCOCC1
IC50 (Aminopeptidase N): 81.5 µM (active)

Oc1ccc(-c2nc3ncccn3c2Nc2ccc3c(c2)OCO3)cc1
IC50 (Large T antigen): 15.6 µM (active)

O=C(Nc1nc2ccccc2[nH]1)c1ccc(Cl)c([N+](=O)[O-])c1
IC50 [4]: 6.46 µM (active)

COc1ccc(/C=C/C(O)=C2\C(=O)NC(=O)N(CCC3=CCCCC3)C2=O)cc1
EC50 [1]: 13.7 µM (active)
EC50 [2]: 14.4 µM (active)
AC50 [3]: 2.71 µM (active)

CN(C)c1ccc(NC(=O)CCN2CCN(c3ccccn3)CC2)cc1
IC50 (Large T antigen): 6.73 µM (active)

CC1CCC2(CC1)NC(=O)N(CC(=O)Nc1ccc3c(c1)OCCO3)C2=O (stereo not given)
IC50 (Leucine aminopeptidase): 13.8 µM (active)

COc1ccc(C(C(=O)NC2CCCC2)N(C(=O)c2ccoc2C)c2ccc(C)cc2)cc1 (stereo not given)
AC50 [5]: 5.46 µM (active)
AC50 [6]: 3.47 µM (active)
AC50 [7]: 8.48 µM (active)
AC50 [8]: 11.7 µM (active)

C=CCOc1ccccc1CNc1ccc2[nH]c(O)nc2c1
CC50 [9]: 21.8 µM (active)
IC50 (Large T antigen): 19 µM (active)

CCOc1ccc(C2C3=C(O)c4ccccc4C3=Nc3nc(N)nc(O)c32)cc1 (stereo not given)
IC50 [4]: > 54 µM (active)

Cc1cc(C=C2C(=O)c3ccccc3C2=O)c(C)n1-c1cccc(C(=O)O)c1
IC50 (Leucine aminopeptidase): 18.6 µM (active)

CC12CC3CC(C)(C1)CC(C(=O)NCc1ccncc1)(C3)C2
AC50 [5]: 7.75 µM (active)
AC50 [6]: 4.58 µM (active)
AC50 [7]: 13.5 µM (active)
AC50 [8]: 22.4 µM (active)

CCCCN1CC(COCc2ccccc2)Oc2cccc(Oc3ccc(C)cc3)c2S1(=O)=O (stereo not given)
AC50 [10]: 10.7 µM (active)

Cc1ccccc1NC(=S)N/N=C/c1ccc(O)cc1O
AC50 (INS1): 2.54 µM (active)
IC50 (Nonstructural protein 1): 11.2 µM (active)

CCOc1cc(/C=N/NC(=O)CCc2nnc(O)nc2O)ccc1O
IC50 [11]: 59.5 µM (active)
IC50 (Large T antigen): 32.7 µM (active)

COc1nccnc1NS(=O)(=O)c1ccc(/N=C/c2c(C)nn(-c3ccc(C)c(C)c3)c2O)cc1
IC50 (Leucine aminopeptidase): 19.3 µM (active)

Reference: ChEMBL document CHEMBL1201862, “PubChem BioAssay data set” (2004)
